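How tested: cells in 96-well plates exposed to compound for 48 hours at five concentrations. Here, GI50 denotes the concentration required for 50% inhibition of growth. TGI denotes the concentration required for complete inhibition of growth.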
Tests used:
Assay in all cases: growth of human tumour cells (NCI), 48 h
[1] = system: EKVX NSCLC
[2] = system: UACC-62 melanoma
[3] = system: A549 NSCLC
[4] = system: SK-OV-3 ovarian
[5] = system: UO-31 renal
[6] = system: RPMI-8226 leukemia
[7] = system: SN12C renal
[8] = system: 786-0 renal
[9] = system: OVCAR-8 ovarian
[10] = system: SR leukemia

SMILES | TGI [1] [µM] | TGI [2] [µM] | TGI [3] [µM] | TGI [4] [µM] | TGI [5] [µM] | TGI [6] [µM] | TGI [7] [µM] | TGI [8] [µM] | TGI [9] [µM] | TGI [10] [µM] | GI50 [1] [µM] | GI50 [2] [µM] | GI50 [3] [µM] | GI50 [4] [µM] | GI50 [5] [µM] | GI50 [6] [µM] | GI50 [7] [µM] | GI50 [8] [µM] | GI50 [9] [µM] | GI50 [10] [µM]
COc1ccc(COC2CC(OC)OC(C)C2OC(=O)c2ccccc2)cc1 (stereo not given) | > 100 | > 100 | > 100 | > 100 | 70.7 | 46.7 | > 100 | > 100 | > 100 | 58.2 | – | – | – | – | – | – | – | – | – | –
COC(=N)c1c(N)[n+]([O-])c2ccc(F)cc2[n+]1[O-] | > 100 | > 100 | > 100 | > 100 | > 100 | > 100 | > 100 | > 100 | > 100 | > 100 | 99.1 | > 100 | > 100 | > 100 | > 100 | 81.2 | > 100 | > 100 | > 100 | 47.9

Source: PubChem BioAssay (NCI)
